13 compounds from patent publication US5739129A, “CCK or gastrin modulating 5-heterocyclic-1, 5 benzodiazepines” (Glaxo Wellcome Inc., priority 1994, dated 1998) can be followed below.

The assay deals with guinea pig gall bladder. Kind of assay: Guinea pig gall bladder assay (contraction of isolated gallbladder rings). It counts as cell-based. Particulars: compounds tested at 1 μM, minimum of three determinations; for Emax at 1 µM: Cavia porcellus, read-out: Contraction (% sulfated CCK-8 maximal response). From the text: GUINEA PIG GALL BLADDER ASSAY Tissue Preparation: Gallbladders were removed from guinea pigs sacrificed by cervical dislocation. The isolated gallbladders were cleaned of adherent connective tissue and cut into two rings from each animal (2-4 mm in length). The rings were subsequently suspended in organ chambers containing a physiological salt solution of the following composition (mM): NaCl (118.4); KCl (4.7); MgSO4 ×H2 O (1.2); CaCl2 ×2H2 O (2.5); […] (1.2); NaHCO3 (25) and dextrose (11.1). The bathing solution was maintained at 37° C. and aerated with 95% O2 /5%CO2. Tissues were connected via gold chains and stainless steel mounting wires to isometric force displacement transducers (Grass, Model FT03 D). Responses were then recorded on a polygraph (Grass, Model 7E). […] Assay: Rings were gradually stretched (over a 120 min. period) to a basal resting tension of 1 gm which was maintained throughout the experiment. During the basal tension adjustment period, the rings were exposed to acetylcholine (ACH, 10^-6 M) four times to verify tissue contractility. The tissues were then exposed to a submaximal dose of sulfated CCK-8 (Sigma, 3×10^-9 M). After obtaining a stable response, the tissues were washed out 3 times rapidly and every 5 to 10 minutes for 1 hour to reestablish a stable baseline. Compounds were dissolved in dimethylsulfoxide (DMSO) then diluted with water and assayed via a cumulative concentration-response curve to test compound (10^-11 to 3×10^-6 M) followed by a concentration-response curve to sulfated CCK-8 (10^-10 to 10^-6 M) in the presence of the highest dose of the test compound. As a final test, ACH (10 mM) was added to induce maximal contraction. A minimum of three determinations of activity were made for each test compound. The compounds were tested at a concentration of 1 μM and the results expressed as % sulfated CCK-8 maximal response.

Turning to `COc1ccc(N(C(=O)CN2C(=O)C(NC(=O)c3cc4ccccc4[nH]3)C(=O)N(c3ccccn3)c3ccccc32)C(C)C)cc1` (single isomer, unassigned) [Example 3, (+) or (-) 1H-Indole-2-carboxylic acid {1-[Isopropyl-(4-methoxy-phenyl)-carbamoylmethyl]-2,4-dioxo-5-pyridin-2-yl-2,3,4,5-tetrahydro-1H-benzo[b][1,4]diazepin-3-yl}-amide], the Emax at 1 µM came out at 83%.
On to `COc1ccc(N(C(=O)CN2C(=O)C(NC(=O)c3cc4ccccc4[nH]3)C(=O)N(c3ccccn3)c3ccccc32)C(C)C)cc1` (single isomer, unassigned) [Example 4, (+) or (-) 1H-Indole-2-carboxylic acid {1-[Isopropyl-(4-methoxy-phenyl)-carbamoylmethyl]-2,4-dioxo-5-pyridin-2-yl-2,3,4,5-tetrahydro-1H-benzo[b][1,4]diazepin-3-yl}-amide], for which the “Contraction (% sulfated CCK-8 maximal response)” value was found to be 67%.
As for `COc1ccc(N(C(=O)CN2C(=O)C(NC(=O)c3cc4ccccc4[nH]3)C(=O)N(c3cccnc3)c3ccccc32)C(C)C)cc1` (single isomer, unassigned) [Example 14, (+) or (-) 1H-Indole-2-carboxylic acid [I-[isopropyl-(4-methoxyphenyl)-carbamoylmethyl]-2,4-dioxo-5-pyridin-3-yl-2,3,4,5-tetrahydro-1H-benzo[b][1,4]diazepin-3-yl]amide], the Emax at 1 µM was determined as 84%.
With `COc1ccc(N(C(=O)CN2C(=O)C(NC(=O)c3cc4ccccc4[nH]3)C(=O)N(c3cccnc3)c3ccccc32)C(C)C)cc1` (single isomer, unassigned) [Example 15, (+) or (-) 1H-Indole-2-carboxylic acid [I-[isopropyl-(4-methoxyphenyl)-carbamoylmethyl]-2,4-dioxo-5-pyridin-3-yl-2,3,4,5-tetrahydro-1H-benzo[b][1,4]diazepin-3-yl]amide], the “Contraction (% sulfated CCK-8 maximal response)” value was found to be 93%.
`COc1ccc(N(C(=O)CN2C(=O)C(NC(=O)Nc3ccccc3)C(=O)N(c3ccccn3)c3ccccc32)C(C)C)cc1` (stereo not shown) [Example 1, 2-[2,4-Dioxo-3-(3-phenyl-ureido)-5-pyridin-2-yl-2,3,4,5-tetrahydrobenzo[b][1,4]diazepin-1-yl]-N-isopropyl-N-(4-methoxy-phenyl)-acetamide]: the Emax at 1 µM stood at 91%.
In the case of `COc1ccc(N(C(=O)CN2C(=O)C(NC(=O)c3cc4ccccc4[nH]3)C(=O)N(c3ccccn3)c3ccccc32)C(C)C)cc1` (stereo not shown) [Example 2, 1H-Indole-2-carboxylic acid {1-[Isopropyl-(4-methoxy-phenyl)-carbamoylmethyl]-2,4-dioxo-5-pyrdin-2-yl-2,3,4,5-tetrahydro-1H-benzo[b][1,4]diazepin-3-yl}-amide], the Emax at 1 µM is 64%.
In the case of `COc1ccc(N(C(=O)CN2C(=O)C(NC(=O)c3cc4ccccc4[nH]3)C(=O)N(c3ncccn3)c3ccccc32)C(C)C)cc1` (stereo not shown) [Example 5, 1H-Indole-2-carboxylic acid {1-[Isopropyl-(4-methoxy-phenyl)-carbamoylmethyl]-2,4-dioxo-5-pyrimidin-2-yl-2,3,4,5-tetrahydro-1H-benzo[b][1,4]diazepin-3-yl}-amide], the Emax at 1 µM is 51%.
Same read-out and setting: next, `COc1ccc(N(C(=O)CN2C(=O)C(NC(=O)c3cc4ccccc4[nH]3)C(=O)N(c3c(C)nn(C)c3C)c3ccccc32)C(C)C)cc1` (stereo not shown) [Example 6, 1H-Indole-2-carboxylic acid [1-[isopropyl-(4-methoxy-phenyl)-carbamoylmethyl]-2,4-dioxo-5-(1,3,5-trimethyl-1H-pyrazol-4-yl)-2,3,4,5-tetrahydro-1H-benzo[b][1,4]diazepin-3-yl]-amide]: 32%; `COc1ccc(N(C(=O)CN2C(=O)C(NC(=O)c3cc4ccccc4[nH]3)C(=O)N(c3cccnc3)c3ccccc32)C(C)C)cc1` (stereo not shown) [Example 7, 1H-Indole-2-carboxylic acid {1[isopropyl-(4-methoxy-phenyl)-carbamoylmethyl]-2,4-dioxo-5-pyridin-3-yl-2,3,4,5-tetrahydro-1H-benzo[b][1,4]diazepin-3-yl}-amide]: 77%.
The same measure, in the same setting: next, `COc1ccc(N(C(=O)CN2C(=O)C(NC(=O)Nc3ccccc3)C(=O)N(c3cccnc3)c3ccccc32)C(C)C)cc1` (stereo not shown) [Example 8, 2-[2,4-dioxo-3-(3-phenyl-ureido)-5-pyridin-3-yl-2,3,4,5-tetrahydrobenzo[b][1,4]diazepin-1-yl]-N-isopropyl-N-(4-methoxy-phenyl) acetamide]: 81%; `COc1ccc(N(C(=O)CN2C(=O)C(NC(=O)Nc3cccc(C(=O)O)c3)C(=O)N(c3cccnc3)c3ccccc32)C(C)C)cc1` (stereo not shown) [Example 10, 3-(3-{1-[isopropyl-(4-methoxy-phenyl)-carbamoylmethyl]-2,4-dioxo-5-pyridin-3-yl-2,3,4,5-tetrahydro-1H-benzo[b][1,4]diazepin-3-yl}-ureido)-benzoic acid]: 83%.
For `COc1ccc(N(C(=O)CN2C(=O)C(NC(=O)c3cc4ccccc4[nH]3)C(=O)N(c3ccncc3)c3ccccc32)C(C)C)cc1` (stereo not shown) [Example 11, 1H-Indole-2-carboxylic acid {1-[Isopropyl-(4-methoxy-phenyl)-carbamoylmethyl]-2,4-indoledioxo-5-pyridin4-yl-2,3,4,5,5a, 9a-hexahydro-1H-benzo[b][1,4]diazepin-3-yl}-amide], the Emax at 1 µM amounted to 67%.
With `COc1ccc(N(C(=O)CN2C(=O)C(NC(=O)Nc3cccc(C(=O)O)c3)C(=O)N(c3cccnc3)c3cc(F)ccc32)C(C)C)cc1` (stereo not shown) [Example 13, 3-(3-{7-Fluoro-1-[isopropyl-(4-methoxy-phenyl)-carbamoylmethyl]-2,4-dioxo-5-pyridin-3-yl-2,3,4,5-tetrahydro-1H-benzo[b][1,4]diazepin-3-yl}-ureido)-benzoic acid], the Emax at 1 µM was 96%.
